The results in this text go back to patent US8883782B2, “Spiro-tetracyclic ring compounds as beta-secretase modulators and methods of use” (Amgen Inc., priority 2010, dated 2014).

Experiment [1] addresses Beta Secretase enzyme (BACE) (Homo sapiens, UniProt P56817). The experiment is described as follows: In vitro enzymatic BACE FRET (fluorescence resonance energy transfer) assay. Type of experiment: biochemical. The procedure, abridged: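 Fluorescence read after Tris quench to neutral pH. Reaction: 50 nM fluorophore/quencher peptide substrate, 1 h, in 0.05 M acetate pH 4.2, 10% DMSO final, 100 uM genapol.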

The test system of experiment [2] is Aβ40 in conditioned medium of cells stably expressing Amyloid Precursor Protein (APP). Briefly: In vitro BACE cell-based assay (Aβ40 in conditioned medium, sandwich ELISA). As to conditions: Homo sapiens. The essentials:
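Quantification relied on pAb40/6E10 sandwich ELISA with Europium fluorescence counts, and IC50 was fitted versus concentration.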
In general terms: An ELISA detects its analyte on a solid surface through an enzyme-linked reagent.

Where [3] appears, read: average IC50, enzyme assay, read-out: BACE 1 FRET assay.
Where [4] appears, read: HEK293, average IC50, HEK cells, read-out: HEK cell assay.

Read-outs that look alike come from different tables or passages of the source.

Sequence of Beta Secretase enzyme (BACE) (P56817 46-501, species assumed): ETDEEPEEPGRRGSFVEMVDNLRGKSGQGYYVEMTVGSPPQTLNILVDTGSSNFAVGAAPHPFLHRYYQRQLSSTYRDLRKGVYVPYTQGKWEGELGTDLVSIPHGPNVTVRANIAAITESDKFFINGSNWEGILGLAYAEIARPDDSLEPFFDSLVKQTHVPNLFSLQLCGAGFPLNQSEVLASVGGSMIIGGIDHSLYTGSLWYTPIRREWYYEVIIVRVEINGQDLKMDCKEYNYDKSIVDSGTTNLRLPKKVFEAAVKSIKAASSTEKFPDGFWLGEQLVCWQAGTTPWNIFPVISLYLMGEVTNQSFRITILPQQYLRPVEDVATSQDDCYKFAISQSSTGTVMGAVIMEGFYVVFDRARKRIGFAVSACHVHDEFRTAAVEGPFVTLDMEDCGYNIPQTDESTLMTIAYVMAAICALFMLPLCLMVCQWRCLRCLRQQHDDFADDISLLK

On to `CC(C)(C)/C=C/c1ccc2c(c1)[C@]1(COC(N)=N1)c1cc(-c3cncnc3)ncc1O2` [Example 384, (5R)-7-((1E)-3,3-dimethyl-1-buten-1-yl)-3-(5-pyrimidinyl)spiro[chromeno[2,3-c]pyridine-5,4′-[1,3]oxazol]-2′-amine], for which the IC50 in experiment [1] (setting [3]) stood at 0.004 µM; in experiment [2] (setting [4]), 0.084 µM.

In the case of `NC1=N[C@@]2(CO1)c1cc(-c3cccnc3F)ccc1Oc1cnc(C3=CCCCC3)cc12` [Example 386, (5S)-3-(1-cyclohexen-1-yl)-7-(2-fluoro-3-pyridinyl)spiro[chromeno[2,3-c]pyridine-5,4′-[1,3]oxazol]-2′-amine], the values for the IC50 in experiment [1] (setting [3]) and in experiment [2] (setting [4]) were 0.0004 µM and 0.0111 µM, respectively.

For the compound `N#Cc1ncccc1-c1ccc2c(c1)[C@@]1(COC(N)=N1)c1cc(Cl)ncc1O2` [Example 387, 3-((5S)-2′-amino-3-chlorospiro[chromeno[2,3-c]pyridine-5,4′-[1,3]oxazol]-7-yl)-2-pyridinecarbonitrile], the IC50 in experiment [1] (setting [3]) stood at 0.672 µM; in experiment [2] (setting [4]) it was 10 µM.

Consider `NC1=N[C@@]2(CO1)c1cc(-c3cccnc3F)ccc1Oc1cnc(C3CCCCC3)cc12` [Example 388, (5S)-3-cyclohexyl-7-(2-fluoro-3-pyridinyl)spiro[chromeno[2,3-c]pyridine-5,4′-[1,3]oxazol]-2′-amine], for which the figures for the IC50 in experiment [1] (setting [3]) and in experiment [2] (setting [4]) were 0.0029 µM and 0.107 µM, respectively.

In the case of `N#Cc1ncccc1-c1ccc2c(c1)[C@@]1(COC(N)=N1)c1cc(C3=CCOCC3)ncc1O2` [Example 389, 3-((5S)-2′-amino-3-(3,6-dihydro-2H-pyran-4-yl)spiro[chromeno[2,3-c]pyridine-5,4′-[1,3]oxazol]-7-yl)-2-pyridinecarbonitrile], the IC50 in experiment [1] (setting [3]) turned out to be 0.0111 µM; in experiment [2] (setting [4]) it was 0.0684 µM.

For the compound `NC1=N[C@@]2(CO1)c1cc(-c3cnccc3F)ccc1Oc1cnc(Cl)cc12` [Example 390, (5S)-3-chloro-7-(4-fluoro-3-pyridinyl)spiro[chromeno[2,3-c]pyridine-5,4′-[1,3]oxazol]-2′-amine], the IC50 worked out at 0.102 µM in experiment [1] (setting [3]) and 0.64 µM in experiment [2] (setting [4]).

With `NC1=N[C@@]2(CO1)c1cc(-c3cnccc3F)ccc1Oc1cnc(C3=CCOCC3)cc12` [Example 391, (5S)-3-(3,6-dihydro-2H-pyran-4-yl)-7-(4-fluoro-3-pyridinyl)spiro[chromeno[2,3-c]pyridine-5,4′-[1,3]oxazol]-2′-amine], the IC50 in experiment [1] (BACE 1 FRET assay (uM)) was 0.0007 µM; in experiment [2] (HEK293, read-out: HEK cell assay (uM), average IC50, HEK cells) it was 0.0058 µM.

In the case of `NC1=N[C@]2(CO1)c1cc(-c3ccnc(F)c3)ccc1Oc1cnc(Cl)cc12` [Example 392, (5R)-3-chloro-7-(2-fluoro-4-pyridinyl)spiro[chromeno[2,3-c]pyridine-5,4′-[1,3]oxazol]-2′-amine], the figures for the IC50 in experiment [1] (setting [3]) and in experiment [2] (setting [4]) were 5.54 µM and 10 µM, respectively.

For `NC1=N[C@]2(CO1)c1cc(-c3ccnc(F)c3)ccc1Oc1cnc(-c3cncnc3)cc12` [Example 393, (5R)-7-(2-fluoro-4-pyridinyl)-3-(5-pyrimidinyl)spiro[chromeno[2,3-c]pyridine-5,4′-[1,3]oxazol]-2′-amine], the values for the IC50 in experiment [1] (setting [3]) and in experiment [2] (setting [4]) were 0.0633 µM and 0.224 µM, respectively.

As to `NC1=N[C@@]2(CO1)c1cc(-c3ccc(F)cc3)ccc1Oc1cnc(C3=CCOCC3)cc12` [Example 394, (5S)-3-(3,6-dihydro-2H-pyran-4-yl)-7-(4-fluorophenyl)spiro[chromeno[2,3-c]pyridine-5,4′-[1,3]oxazol]-2′-amine], the results for the IC50 in experiment [1] (setting [3]) and in experiment [2] (setting [4]) were 0.0094 µM and 0.138 µM, respectively.

`NC1=N[C@@]2(CO1)c1cc(-c3ccc(F)cc3)ccc1Oc1cnc(-c3ccnc(F)c3)cc12` [Example 395, (5S)-7-(4-fluorophenyl)-3-(2-fluoro-4-pyridinyl)spiro[chromeno[2,3-c]pyridine-5,4′-[1,3]oxazol]-2′-amine]: the IC50 amounted to 0.0237 µM in experiment [1] (setting [3]) and 0.335 µM in experiment [2] (setting [4]).

In the case of `NC1=N[C@@]2(CO1)c1cc(-c3ccc(F)cc3)ccc1Oc1cnc(-c3cncnc3)cc12` [Example 396, (5S)-7-(4-fluorophenyl)-3-(5-pyrimidinyl)spiro[chromeno[2,3-c]pyridine-5,4′-[1,3]oxazol]-2′-amine], the IC50 was 0.136 µM in experiment [1] (setting [3]) and 1.08 µM in experiment [2] (setting [4]).

`NC1=N[C@@]2(CO1)c1cc(-c3cccnc3F)ccc1Oc1cnc(/C=C/C3CC3)cc12` [Example 401, (5S)-3-((E)-2-cyclopropylethenyl)-7-(2-fluoro-3-pyridinyl)spiro[chromeno[2,3-c]pyridine-5,4′-[1,3]oxazol]-2′-amine]: the IC50 in experiment [1] (setting [3]) worked out at 0.0044 µM; in experiment [2] (setting [4]), 0.0449 µM.

`CN(C)c1cc2c(cn1)Oc1ccc(-c3cccnc3)cc1[C@@]21COC(N)=N1` [Example 403, (5S)-N~3~,N~3~-dimethyl-7-(3-pyridinyl)spiro[chromeno[2,3-c]pyridine-5,4′-[1,3]oxazole]-2′,3-diamine]: the values for the IC50 in experiment [1] (setting [3]) and in experiment [2] (setting [4]) were 0.043 µM and 0.111 µM, respectively.

On to `NC1=N[C@@]2(CO1)c1cc(-c3cccnc3)ccc1Oc1cnc(NCC(F)(F)F)cc12` [Example 404, (5S)-7-(3-pyridinyl)-N~3~-(2,2,2-trifluoroethyl)spiro[chromeno[2,3-c]pyridine-5,4′-[1,3]oxazole]-2′,3-diamine], for which the IC50 in experiment [1] (setting [3]) came out at 0.0313 µM; in experiment [2] (setting [4]) it was 0.163 µM.

As to `CC1(C#Cc2cc3c(cn2)Oc2ccc(-c4cccnc4F)cc2[C@@]32COC(N)=N2)COC1` [Example 405, (5S)-7-(2-fluoro-3-pyridinyl)-3-((3-methyl-3-oxetanyl)ethynyl)spiro[chromeno[2,3-c]pyridine-5,4′-[1,3]oxazol]-2′-amine], the IC50 was 0.0014 µM in experiment [1] (setting [3]) and 0.0111 µM in experiment [2] (setting [4]).

With `COc1ncc(-c2ccc3c(c2)[C@@]2(COC(N)=N2)c2cc(/C=C/C(C)(C)C)ncc2O3)cn1` [Example 406, (5S)-3-((1E)-3,3-dimethyl-1-buten-1-yl)-7-(2-methoxy-5-pyrimidinyl)spiro[chromeno[2,3-c]pyridine-5,4′-[1,3]oxazol]-2′-amine], the IC50 in experiment [1] (setting [3]) was determined as 0.183 µM; in experiment [2] (setting [4]), 0.712 µM.

With `COc1ncc(F)cc1-c1ccc2c(c1)[C@@]1(COC(N)=N1)c1cc(/C=C/C(C)(C)C)ncc1O2` [Example 407, (5S)-3-((1E)-3,3-dimethyl-1-buten-1-yl)-7-(5-fluoro-2-methoxy-3-pyridinyl)spiro[chromeno[2,3-c]pyridine-5,4′-[1,3]oxazol]-2′-amine], the results for the IC50 in experiment [1] (setting [3]) and in experiment [2] (setting [4]) were 0.0053 µM and 0.158 µM, respectively.

On to `COc1ncccc1-c1ccc2c(c1)[C@@]1(COC(N)=N1)c1cc(/C=C/C(C)(C)C)ncc1O2` [Example 408, (5S)-3-((1E)-3,3-dimethyl-1-buten-1-yl)-7-(2-methoxy-3-pyridinyl)spiro[chromeno[2,3-c]pyridine-5,4′-[1,3]oxazol]-2′-amine], for which the IC50 in experiment [1] (setting [3]) was found to be 0.0201 µM; in experiment [2] (setting [4]), 0.311 µM.

As for `COC(C)(C)CNc1cc2c(cn1)Oc1ccc(-c3cccnc3)cc1[C@@]21COC(N)=N1` [Example 409, (5S)-N~3~-(2-methoxy-2-methylpropyl)-7-(3-pyridinyl)spiro[chromeno[2,3-c]pyridine-5,4′-[1,3]oxazole]-2′,3-diamine], the results for the IC50 in experiment [1] (setting [3]) and in experiment [2] (setting [4]) were 0.0066 µM and 0.0178 µM, respectively.

`N#CC1CN(c2cc3c(cn2)Oc2ccc(-c4cccnc4)cc2[C@@]32COC(N)=N2)C1` [Example 410, 1-((5S)-2′-amino-7-(3-pyridinyl)spiro[chromeno[2,3-c]pyridine-5,4′-[1,3]oxazol]-3-yl)-3-azetidinecarbonitrile]: the IC50 in experiment [1] (setting [3]) amounted to 0.0287 µM; in experiment [2] (setting [4]), 0.128 µM.

As to `NC1=N[C@@]2(CO1)c1cc(-c3cccnc3)ccc1Oc1cnc(N3CC[C@@H](F)C3)cc12` [Example 411, (5S)-3-((3R)-3-fluoro-1-pyrrolidinyl)-7-(3-pyridinyl)spiro[chromeno[2,3-c]pyridine-5,4′-[1,3]oxazol]-2′-amine], the results for the IC50 in experiment [1] (setting [3]) and in experiment [2] (setting [4]) were 0.0023 µM and 0.0045 µM, respectively.

Regarding `NC1=N[C@@]2(CO1)c1cc(-c3cccnc3)ccc1Oc1cnc(N3CC[C@H](F)C3)cc12` [Example 412, (5S)-3-((3S)-3-fluoro-1-pyrrolidinyl)-7-(3-pyridinyl)spiro[chromeno[2,3-c]pyridine-5,4′-[1,3]oxazol]-2′-amine], the IC50 in experiment [1] (setting [3]) was determined as 0.0076 µM; in experiment [2] (setting [4]) it was 0.0208 µM.

As for `NC1=N[C@@]2(CO1)c1cc(-c3cncc(F)c3)ccc1Oc1cnc(N3CCC(F)(F)C3)cc12` [Example 413, (5S)-3-(3,3-difluoro-1-pyrrolidinyl)-7-(5-fluoro-3-pyridinyl)spiro[chromeno[2,3-c]pyridine-5,4′-[1,3]oxazol]-2′-amine], the results for the IC50 in experiment [1] (setting [3]) and in experiment [2] (setting [4]) were 0.0008 µM and 0.0056 µM, respectively.

On to `COc1ncc(-c2ccc3c(c2)[C@@]2(COC(N)=N2)c2cc(N4CCC(F)(F)C4)ncc2O3)cn1` [Example 415, (5S)-3-(3,3-difluoro-1-pyrrolidinyl)-7-(2-methoxy-5-pyrimidinyl)spiro[chromeno[2,3-c]pyridine-5,4′-[1,3]oxazol]-2′-amine], for which the IC50 in experiment [1] (setting [3]) amounted to 0.0817 µM; in experiment [2] (setting [4]), 0.367 µM.

In the case of `COc1ncc(-c2ccc3c(c2)[C@@]2(COC(N)=N2)c2cc(N4CC[C@@H](F)C4)ncc2O3)cn1` [Example 417, (5S)-3-((3R)-3-fluoro-1-pyrrolidinyl)-7-(2-methoxy-5-pyrimidinyl)spiro[chromeno[2,3-c]pyridine-5,4′-[1,3]oxazol]-2′-amine], the IC50 was 0.0845 µM in experiment [1] (setting [3]) and 0.336 µM in experiment [2] (setting [4]).

For the compound `COC(C)(C)CNc1cc2c(cn1)Oc1ccc(-c3cccnc3F)cc1[C@@]21COC(N)=N1` [Example 418, (5S)-7-(2-fluoro-3-pyridinyl)-N~3~-(2-methoxy-2-methylpropyl)spiro[chromeno[2,3-c]pyridine-5,4′-[1,3]oxazole]-2′,3-diamine], the IC50 worked out at 0.003 µM in experiment [1] (setting [3]) and 0.0141 µM in experiment [2] (setting [4]).
